One test deals with T1, GIP-R (Homo sapiens, UniProt P48546).
T1 sequence (P48546 22-466): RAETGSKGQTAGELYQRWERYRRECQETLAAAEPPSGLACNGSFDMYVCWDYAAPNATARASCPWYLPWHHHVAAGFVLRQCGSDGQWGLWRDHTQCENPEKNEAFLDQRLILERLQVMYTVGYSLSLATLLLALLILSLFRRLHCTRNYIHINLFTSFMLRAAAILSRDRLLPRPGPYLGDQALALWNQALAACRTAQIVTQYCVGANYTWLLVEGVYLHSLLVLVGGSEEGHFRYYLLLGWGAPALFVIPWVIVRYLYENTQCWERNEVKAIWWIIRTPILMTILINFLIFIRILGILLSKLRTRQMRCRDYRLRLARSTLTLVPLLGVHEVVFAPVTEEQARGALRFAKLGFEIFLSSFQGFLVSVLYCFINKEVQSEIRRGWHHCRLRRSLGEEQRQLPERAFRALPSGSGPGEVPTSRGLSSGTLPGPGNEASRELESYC
Description: HitHunter cAMP assay (GIP-R). Type of test: cell-based. The following applies: cAMP; for Emax: read-out: (Emax) GIP-R. In short, it runs like this:
(§1)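 Suspension cells (10,000/well) in HBSS with 10 mM HEPES, 625 μM IBMX, 0.2% BSA exposed to 22-point 2-fold agonist series in duplicate for 30 min at room temperature. cAMP measured by antibody immunocompetition with overnight development, luminescence read-out.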
Background: Changes in cAMP serve as a functional read-out for many G protein-coupled receptors.

The target of a further test is GLP-1R (Homo sapiens, UniProt P43220). In words: HitHunter cAMP assay (GLP-1R). Format: cell-based. To be noted: cAMP; for Emax: read-out: (Emax) GLP-1R. Summed up: as §1
Where [1] appears, read: Table 3A, read-out: EC50 GIP-R/nM.
[2] abbreviates: Table 3A, read-out: EC50 GLP-1R/nM.

Molecules are shown by their SMILES. Read-outs that look alike come from different tables or passages of the source. Numbered stars: 1 amine (or outer) side, 2 acyl side, 3 side chain; on linkers, the order of the positions; unused ones are H or OH. Square brackets hold non-standard residues; d marks the D form. Side chains are listed from the residue outwards. Peptide text beside a SMILES is read from it. * marks the point of attachment. γGlu = O=C(O)[C@H](CCC(=O)[*:2])N[*:1]; X2 = O=C(CSCC(=O)*)NCCN1C(=O)CSC1=O; Palmitoyl = CCCCCCCCCCCCCCCC(=O)*; Aib = CC(C)(N)C(=O)O Bounds are passed on as bounds.

Sequence of GLP-1R (P43220 24-463): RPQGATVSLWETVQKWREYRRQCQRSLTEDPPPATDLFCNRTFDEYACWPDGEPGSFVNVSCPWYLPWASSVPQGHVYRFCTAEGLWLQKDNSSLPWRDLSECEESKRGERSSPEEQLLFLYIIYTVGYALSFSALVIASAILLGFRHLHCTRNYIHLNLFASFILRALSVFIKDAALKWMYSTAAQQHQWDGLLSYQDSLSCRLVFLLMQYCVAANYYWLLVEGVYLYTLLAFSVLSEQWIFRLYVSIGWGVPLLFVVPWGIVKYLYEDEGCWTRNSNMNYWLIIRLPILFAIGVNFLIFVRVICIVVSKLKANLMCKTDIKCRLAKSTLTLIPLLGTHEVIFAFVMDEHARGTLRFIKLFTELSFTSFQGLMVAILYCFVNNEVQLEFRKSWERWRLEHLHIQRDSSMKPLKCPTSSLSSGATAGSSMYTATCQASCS

As to `CCCCCCCCCCCCCCCC(=O)N[C@@H](CCC(=O)NCCCC[C@H](NC(=O)[C@H](CO)NC(=O)[C@@H]1CCCN1C(=O)[C@@H]1CCCN1C(=O)[C@@H]1CCCN1C(=O)[C@H](C)NC(=O)CNC(=O)[C@H](CO)NC(=O)[C@H](CO)NC(=O)[C@@H]1CCCN1C(=O)CNC(=O)CNC(=O)[C@H](C)NC(=O)[C@H](CC(C)C)NC(=O)[C@H](CC(C)C)NC(=O)[C@H](Cc1c[nH]c2ccccc12)NC(=O)[C@H](CC(N)=O)NC(=O)[C@@H](NC(=O)[C@H](Cc1ccccc1)NC(=O)[C@H](CCC(=O)O)NC(=O)C(C)(C)NC(=O)[C@H](C)NC(=O)[C@H](C)NC(=O)[C@H](CCC(N)=O)NC(=O)[C@H](CCCCN)NC(=O)[C@H](CC(=O)O)NC(=O)[C@H](CC(C)C)NC(=O)[C@H](Cc1ccc(O)cc1)NC(=O)[C@@H](NC(=O)[C@H](CO)NC(=O)[C@H](Cc1ccc(O)cc1)NC(=O)[C@H](CC(=O)O)NC(=O)[C@H](CO)NC(=O)[C@@H](NC(=O)[C@H](Cc1ccccc1)NC(=O)[C@@H](NC(=O)CNC(=O)[C@H](CCC(=O)O)NC(=O)CSCC(=O)NCCN1C(=O)C[C@H](CC)C1=O)[C@@H](C)O)[C@@H](C)O)[C@@H](C)CC)C(C)C)C(N)=O)C(=O)O` (single isomer, unassigned) [Compound 62], the Emax (in general, the greatest response seen or fitted, relative to the assay's reference) at GIP-R (Table 3) was 48%; on GIP-R (Table 3A), 48%; on GLP-1R (Table 3) it was 101%; on GLP-1R (Table 3A), 101%.

With `CCCCCCCCCCCCCCCC(=O)N[C@@H](CCC(=O)NCCCC[C@H](NC(=O)[C@H](CO)NC(=O)[C@@H]1CCCN1C(=O)[C@@H]1CCCN1C(=O)[C@@H]1CCCN1C(=O)[C@H](C)NC(=O)CNC(=O)[C@H](CO)NC(=O)[C@H](CO)NC(=O)[C@@H]1CCCN1C(=O)CNC(=O)CNC(=O)[C@H](C)NC(=O)[C@H](CC(C)C)NC(=O)[C@H](CC(C)C)NC(=O)[C@H](Cc1c[nH]c2ccccc12)NC(=O)[C@H](CC(N)=O)NC(=O)[C@@H](NC(=O)[C@H](Cc1ccccc1)NC(=O)[C@H](CCC(=O)O)NC(=O)C(C)(C)NC(=O)[C@H](C)NC(=O)[C@H](C)NC(=O)[C@H](CCC(N)=O)NC(=O)[C@H](CCCCN)NC(=O)[C@H](CC(=O)O)NC(=O)[C@H](CC(C)C)NC(=O)[C@H](Cc1ccc(O)cc1)NC(=O)[C@@H](NC(=O)[C@H](CO)NC(=O)[C@H](Cc1ccc(O)cc1)NC(=O)[C@H](CC(=O)O)NC(=O)[C@H](CO)NC(=O)[C@@H](NC(=O)[C@H](Cc1ccccc1)NC(=O)[C@@H](NC(=O)CNC(=O)[C@H](CCC(=O)O)NC(=O)CSCC(=O)NCCN1C(=O)[C@H]2CCC[C@H]2C1=O)[C@@H](C)O)[C@@H](C)O)[C@@H](C)CC)C(C)C)C(N)=O)C(=O)O` [Compound 103], the EC50 on GIP-R (EC50 GIP-R/nM, Table 3) fell in the range of 1 to 10 nM; on GIP-R (EC50 GIP-R/nM, Table 3A) it was 1 to 10 nM; on GLP-1R (EC50 GLP-1R/nM, Table 3), 10 to 100 nM; at GLP-1R (EC50 GLP-1R/nM, Table 3A) it was 10 to 100 nM. Further, the Emax was found to be 68% on GIP-R (Table 3), 68% on GIP-R (Table 3A), 95% on GLP-1R (Table 3) and 95% on GLP-1R (Table 3A).

Regarding `CC[C@H](C)[C@H](NC(=O)[C@H](CO)NC(=O)[C@H](Cc1ccc(O)cc1)NC(=O)[C@H](CC(=O)O)NC(=O)[C@H](CO)NC(=O)[C@@H](NC(=O)[C@H](Cc1ccccc1)NC(=O)[C@@H](NC(=O)CNC(=O)[C@H](CCC(=O)O)NC(=O)CC(C)(C)CC(=O)NCCN1C(=O)CSC1=O)[C@@H](C)O)[C@@H](C)O)C(=O)N[C@@H](Cc1ccc(O)cc1)C(=O)N[C@@H](CC(C)C)C(=O)N[C@@H](CC(=O)O)C(=O)N[C@@H](CCCCN)C(=O)N[C@@H](CCC(N)=O)C(=O)N[C@@H](C)C(=O)N[C@@H](C)C(=O)NC(C)(C)C(=O)N[C@@H](CCC(=O)O)C(=O)N[C@@H](Cc1ccccc1)C(=O)N[C@H](C(=O)N[C@@H](CC(N)=O)C(=O)N[C@@H](Cc1c[nH]c2ccccc12)C(=O)N[C@@H](CC(C)C)C(=O)N[C@@H](CC(C)C)C(=O)N[C@@H](C)C(=O)NCC(=O)NCC(=O)N1CCC[C@H]1C(=O)N[C@@H](CO)C(=O)N[C@@H](CO)C(=O)NCC(=O)N[C@@H](C)C(=O)N1CCC[C@H]1C(=O)N1CCC[C@H]1C(=O)N1CCC[C@H]1C(=O)N[C@@H](CO)C(=O)N[C@@H](CCCCN)C(N)=O)C(C)C` [Compound 122], the EC50 is > 1000 nM on GIP-R (Table 3, read-out: EC50 GIP-R/nM); > 1000 nM on GIP-R (setting [1]); 1 to 10 nM on GLP-1R (Table 3, read-out: EC50 GLP-1R/nM); 1 to 10 nM at GLP-1R (setting [2]). Further, the maximal response (Emax) at 1 µM on GIP-R (read-out: (Emax) GIP-R at 1 μM, Table 3, at 1 μM) was < 1%. The Emax at GLP-1R (Table 3) and on GLP-1R (Table 3A) was 91% each time.

Take `CC[C@H](C)[C@H](NC(=O)[C@H](CO)NC(=O)[C@H](Cc1ccc(O)cc1)NC(=O)[C@H](CC(=O)O)NC(=O)[C@H](CO)NC(=O)[C@@H](NC(=O)[C@H](Cc1ccccc1)NC(=O)[C@@H](NC(=O)CNC(=O)[C@H](CCC(=O)O)NC(=O)CSCC(=O)NCCN1C(=O)[C@H]2C[C@H]2C1=O)[C@@H](C)O)[C@@H](C)O)C(=O)N[C@@H](Cc1ccc(O)cc1)C(=O)N[C@@H](CC(C)C)C(=O)N[C@@H](CC(=O)O)C(=O)N[C@@H](CCCCN)C(=O)N[C@@H](CCC(N)=O)C(=O)N[C@@H](C)C(=O)N[C@@H](C)C(=O)NC(C)(C)C(=O)N[C@@H](CCC(=O)O)C(=O)N[C@@H](Cc1ccccc1)C(=O)N[C@H](C(=O)N[C@@H](CC(N)=O)C(=O)N[C@@H](Cc1c[nH]c2ccccc12)C(=O)N[C@@H](CC(C)C)C(=O)N[C@@H](CC(C)C)C(=O)N[C@@H](C)C(=O)NCC(=O)NCC(=O)N1CCC[C@H]1C(=O)N[C@@H](CO)C(=O)N[C@@H](CO)C(=O)NCC(=O)N[C@@H](C)C(=O)N1CCC[C@H]1C(=O)N1CCC[C@H]1C(=O)N1CCC[C@H]1C(=O)N[C@@H](CO)C(=O)N[C@@H](CCCCN)C(N)=O)C(C)C` [Compound 109]: the EC50 on GIP-R (EC50 GIP-R/nM, Table 3) is 10 to 100 nM; on GIP-R (EC50 GIP-R/nM, Table 3A), 10 to 100 nM; at GLP-1R (EC50 GLP-1R/nM, Table 3) it was 1 to 10 nM; at GLP-1R (EC50 GLP-1R/nM, Table 3A), 1 to 10 nM. The Emax worked out at 36% on GIP-R (Table 3), 36% on GIP-R (Table 3A), 101% at GLP-1R (Table 3) and 101% on GLP-1R (Table 3A).

Consider `CCCCCCCCCCCCCCCC(=O)N[C@@H](CCC(=O)NCCCC[C@H](NC(=O)CNC(=O)[C@H](CCCNC(=N)N)NC(=O)CNC(=O)[C@H](C)NC(=O)[C@H](CC(C)C)NC(=O)[C@H](CC(C)C)NC(=O)[C@H](Cc1c[nH]c2ccccc12)NC(=O)[C@H](CC(N)=O)NC(=O)[C@@H](NC(=O)[C@H](Cc1ccccc1)NC(=O)[C@H](CCC(=O)O)NC(=O)C(C)(C)NC(=O)[C@H](C)NC(=O)[C@H](C)NC(=O)[C@H](CCC(N)=O)NC(=O)[C@H](CCCCN)NC(=O)[C@H](CC(=O)O)NC(=O)[C@H](CC(C)C)NC(=O)[C@H](Cc1ccc(O)cc1)NC(=O)[C@@H](NC(=O)[C@H](CO)NC(=O)[C@H](Cc1ccc(O)cc1)NC(=O)[C@H](CC(=O)O)NC(=O)[C@H](CO)NC(=O)[C@@H](NC(=O)[C@H](Cc1ccccc1)NC(=O)[C@@H](NC(=O)CNC(=O)[C@H](CCC(=O)O)NC(=O)CSCC(=O)NCCN1C(=O)CSC1=O)[C@@H](C)O)[C@@H](C)O)[C@@H](C)CC)C(C)C)C(=O)NCC(=O)N1CCC[C@H]1C(=O)N[C@@H](CO)C(=O)N[C@@H](CO)C(=O)NCC(=O)N[C@@H](C)C(=O)N1CCC[C@H]1C(=O)N1CCC[C@H]1C(=O)N1CCC[C@H]1C(=O)N[C@@H](CO)C(N)=O)C(=O)O` [Compound 198] (X2-EGTFTSDYSIYLDKQAA[Aib]EFVNWLLAGRGK([γGlu-Palmitoyl])GPSSGAPPPS-NH2), for which the values for the Emax on GIP-R (Table 3A) and on GLP-1R (Table 3A) were 81% and 95%, respectively. The EC50 on GIP-R (setting [1]) and on GLP-1R (setting [2]) was 10 to 100 nM each time.

For the molecule `CC[C@H](C)[C@H](NC(=O)[C@H](CO)NC(=O)[C@H](Cc1ccc(O)cc1)NC(=O)[C@H](CC(=O)O)NC(=O)[C@H](CO)NC(=O)[C@@H](NC(=O)[C@H](Cc1ccccc1)NC(=O)[C@@H](NC(=O)CNC(=O)[C@H](CCC(=O)O)NC(=O)CSCC(=O)NCCN1C(=O)c2cccc([N+](=O)[O-])c2C1=O)[C@@H](C)O)[C@@H](C)O)C(=O)N[C@@H](Cc1ccc(O)cc1)C(=O)N[C@@H](CC(C)C)C(=O)N[C@@H](CC(=O)O)C(=O)N[C@@H](CCCCN)C(=O)N[C@@H](CCC(N)=O)C(=O)N[C@@H](C)C(=O)N[C@@H](C)C(=O)NC(C)(C)C(=O)N[C@@H](CCC(=O)O)C(=O)N[C@@H](Cc1ccccc1)C(=O)N[C@H](C(=O)N[C@@H](CC(N)=O)C(=O)N[C@@H](Cc1c[nH]c2ccccc12)C(=O)N[C@@H](CC(C)C)C(=O)N[C@@H](CC(C)C)C(=O)N[C@@H](C)C(=O)NCC(=O)NCC(=O)N1CCC[C@H]1C(=O)N[C@@H](CO)C(=O)N[C@@H](CO)C(=O)NCC(=O)N[C@@H](C)C(=O)N1CCC[C@H]1C(=O)N1CCC[C@H]1C(=O)N1CCC[C@H]1C(=O)N[C@@H](CO)C(=O)N[C@@H](CCCCN)C(N)=O)C(C)C` [Compound 108], the EC50 on GIP-R (EC50 GIP-R/nM, Table 3) is 10 to 100 nM; on GIP-R (EC50 GIP-R/nM, Table 3A), 10 to 100 nM; on GLP-1R (EC50 GLP-1R/nM, Table 3), > 1000 nM; at GLP-1R (EC50 GLP-1R/nM, Table 3A), > 1000 nM. Moreover, the Emax on GIP-R (Table 3) and at GIP-R (Table 3A) was 69% each time. For the same molecule, the maximal response (Emax) at 1 µM worked out at 18% on GLP-1R (read-out: (Emax) GLP-1R at 1 μM, Table 3) and 18% at GLP-1R (read-out: (Emax) GLP-1R at 1 μM, Table 3A).

For the origin of these results see patent publication US20260176320A1, “MODULATORS OF G-PROTEIN COUPLED RECEPTORS” (priority 2018, published 2026).
